Patent US11026931B2, “Methods for the administration of certain VMAT2 inhibitors” (Neurocrine Biosciences, Inc., priority 2018, dated 2021)

Tests used:
[1] = system: ptosis (adrenergic activation); experiment: In vivo surrogate measure: ptosis
[2] = system: prolactin release from the pituitary, modulated through the D2 dopamine receptor; experiment: In vivo surrogate measure: prolactin release
human VMAT1 transporter = molecular target: T1, human VMAT1 transporter (Homo sapiens, UniProt P54219); experiment: Uptake in cells expressing VMAT1; type: cell-based; conditions: for inhibition of uptake through VMAT1: cells expressing VMAT1, test compounds at concentrations up to 10 μM; for effect on the uptake of monoamines through VMAT1: compared to reserpine
T1 construct: expressed in transfected cells
T1 sequence (P54219 1-525): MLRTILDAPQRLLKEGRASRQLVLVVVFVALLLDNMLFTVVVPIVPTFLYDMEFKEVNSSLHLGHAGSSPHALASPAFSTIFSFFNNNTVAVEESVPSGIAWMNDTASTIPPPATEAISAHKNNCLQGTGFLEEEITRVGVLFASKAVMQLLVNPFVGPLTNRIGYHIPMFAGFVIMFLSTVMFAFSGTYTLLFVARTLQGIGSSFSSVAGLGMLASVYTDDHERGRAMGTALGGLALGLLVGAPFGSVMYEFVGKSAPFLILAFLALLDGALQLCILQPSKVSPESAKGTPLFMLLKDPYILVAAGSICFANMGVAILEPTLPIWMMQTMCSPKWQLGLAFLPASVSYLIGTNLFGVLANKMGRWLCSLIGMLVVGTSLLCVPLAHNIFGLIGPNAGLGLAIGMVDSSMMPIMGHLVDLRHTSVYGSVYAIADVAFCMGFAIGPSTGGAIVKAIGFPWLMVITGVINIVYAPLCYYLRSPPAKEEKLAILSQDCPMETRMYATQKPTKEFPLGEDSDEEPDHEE

[3] = Plasma concentrations of circulating metabolites of VBZ; type: in vivo; conditions: metabolites formed from VBZ
[4] = system: dopamine, serotonin and adrenergic receptor subtypes; experiment: Radioligand binding assays for monoamine receptor subtypes; conditions: for interaction with D1 and D2 receptors: radioligand binding assays and broad panel screen
[5] = Analysis of hypersensitivity and dermatological reactions (case reports); type: in vivo
From the text: A total of 17 cases of hypersensitivity reaction and/or dermatological findings and evidence for possible causal relationship with VBZ have been reported either spontaneously (6) or after solicitation (11). Of these 17 cases, 14 cases had both hypersensitivity reaction with dermatological findings (5 were serious and 9 were non-serious).

[6] = of the 14 cases with hypersensitivity reaction and dermatological findings

SMILES | induction of ptosis [1] | inhibition of uptake through VMAT1 (human VMAT1 transporter) | effect on the uptake of monoamines through VMAT1 (human VMAT1 transporter) | further results
COc1cc2c(cc1OC)C1CC(=O)C(CC(C)C)CN1CC2 (racemic) [TBZ, 1,3,4,6,7, 11b-hexahydro-9,1O-dimethoxy-3-(2-methylpropyl)-2H-benzo(a)quinolizin-2-one, reference compound] | induced ptosis in an equivalent manner | no significant inhibitory activity | no significant effect | increase in serum prolactin levels [2]: increase in serum prolactin levels
COc1cc2c(cc1OC)[C@H]1C[C@@H](OC(=O)[C@@H](N)C(C)(C)O)[C@H](CC(C)C)CN1CC2 [NBI-136110] | – | no significant inhibitory activity | no significant effect | half-lives of plasma concentration decline [3]: half-lives similar to VBZ
COc1cc2c(cc1OC)[C@H]1C[C@@H](O)[C@H](CC(C)C)CN1CC2 [R,R,R-DHTBZ, (2R, 3R,11bR)-3-isobutyl-9,10-dimethoxy-1,3,4,6,7,11b-hexahydro-2H-pyrido[2,1-a]isoquinolin-2-ol] | induced ptosis in an equivalent manner | no significant inhibitory activity | no significant effect | specificity for the VMAT2 transporter ([4]; versus monoamine receptor subtypes and transporters): high specificity; increase in serum prolactin levels [2]: induced a similar increase in serum prolactin levels as TBZ; half-lives of plasma concentration decline [3]: half-lives similar to VBZ
COc1cc2c(cc1OC)[C@@H]1C[C@@H](O)[C@@H](CC(C)C)CN1CC2 [R,S,S-DHTBZ] | – | – | – | interaction with D1 and D2 receptors [4]: interact with D1 and D2 receptors
COc1cc2c(cc1OC)[C@@H]1C[C@H](O)[C@@H](CC(C)C)CN1CC2 [S,S,S-DHTBZ] | – | – | – | interaction with D1 and D2 receptors [4]: interact with D1 and D2 receptors
COc1cc2c(cc1OC)[C@H]1C[C@@H](OC(=O)[C@@H](N)C(C)C)[C@H](CC(C)C)CN1CC2 [Valbenazine, (S)-2-amino-3-methyl-butyric acid (2R, 3R,11 bR)-3-isobutyl-9,10-dimethoxy-1,3,4,6,7,11b-hexahydro-2H-pyrido[2,1-a]isoquinolin-2-yl ester] | induced ptosis in an equivalent manner | no significant inhibitory activity | no significant effect | association with hypersensitivity reactions ([5]; case reports received through 10 Oct. 2017): may be associated with hypersensitivity reactions with or without dermatological reactions; non-serious cases [5, 6]: 9 cases; serious cases [5, 6]: 5 cases; cases with both hypersensitivity reaction and dermatological findings ([5]; of the 17 cases): 14 cases
COC(=O)[C@H]1[C@H]2C[C@@H]3c4[nH]c5cc(OC)ccc5c4CCN3C[C@H]2C[C@@H](OC(=O)c2cc(OC)c(OC)c(OC)c2)[C@@H]1OC [reserpine, reference compound] | – | substantially inhibited uptake through VMAT1 | – | –
